Measurements published in patent publication US5298488A, “CM-chitin derivatives and use thereof” (Fuji Photo Film Co., Ltd., priority 1990, dated 1994).
No end group written: not given here. sulfated succinylated CM‑chitin = sulfated succinylated CM-chitin; succinylated CM‑Chitin = succinylated CM-chitin; CM‑Chitin = carboxymethyl chitin

Columns and labels:
fibronectin = experiment: Cell adhesion-inhibitory test against fibronectin (competitive assay, number of adhered cells); type: cell-based, human; settings: endothelium cells of blood vessel, 37° C., one hour, 0 mg/ml control 160
Description: (§1) A method for determining the activity of the CM-chitin derivatives of the present invention for inhibiting adhesion of cells to fibronectin or vitronectin will be described below. The competitive assays used herein have widely been employed tin the field of biochemistry and are detailed in, for instance, "Method in Enzymology", 1981, 82, pp. 803-831; and J. P. KOKAI Nos. Hei 1-309682 and Hei 2-174797.
(§2) Commercially available fibroneotin (derived from human; purchased from Seikaqaku Kogyo K. K.) and vitronectin (derived from human; purchased from Funakoshi Co., Ltd.) each was diluted to 1.0 μ1/ml and 2.0 μ1/ml with PBS (NaH2 PO4 0.005 M+NaCl 0.07 M), 0.5 ml of the resulting diluted solution was dispensed into a plastic plate having 24 wells and incubated at 37° C. overnight to perform coating of the plate. Then bovine serum albumin (BSA 1%) was added followed by incubation at 37° C. for one hour for inhibiting the occurrence of nonspecific adsorption, then washing with PBS in the usual manner and sufficient drainage to give an adsorption plate.
A CM-chitin derivative obtained through lyophilization was diluted with Dulbecco's Modified Eagles Medium (hereunder referred to as "DMEM") to give solutions of the CM-chitin derivative having concentrations of 0, 0.25, 0.5, 1.0 and 1.5 mg/ml respectively. Each of the solutions (0.25 ml) was dispensed to the plate prepared above, 0.25 ml of a suspension of endothelium cells of blood vessel (4×10^6 cells/ml) was added to the plate and incubated at 37° C. for one hour to thus cause cohesion of the cells. The plate was washed three times with DMEM medium to remove non-adhesive cells, then the adhered cells were peeled off with a 0.025% EDTA trypsin solution and stained with a 2% Trypan Blue solution to determine the number of the adhered cells.

[1] = test system: human plasma rich in platelet; experiment: Platelet coagulation-inhibitory activity in vitro, transmittance by aggregometer; type: cell-based; settings: 37° C., 3 minutes preincubation; for Platelet Coagulation-Inhibitory Action IC50, ADP Stimulation: ADP stimulation (50 μM ADP solution); for Platelet Coagulation-Inhibitory Action IC50, Collagen Stimulation: collagen stimulation (200 μg/ml collagen solution)
Experimental: The platelet coagulation-inhibitory effect of the CM-chitin derivative of the present invention was assayed, in vitro, using human plasma rich in platelet. The experimental method will be described below.
To fresh human blood, there was added 1/9 volume of a 3.8% sodium citrate solution, the resulting mixture was centrifuged (1000 rpm; for 10 minutes) and the upper layer was separated as a plasma rich in platelet. A lyophilized CM-chitin derivative was dissolved in physiological saline to give a plurality of solutions having various concentrations ranging from 0 to 1.5 mg/ml. Each of the solutions (25 μ1) was added to 200 µl of the plasma, incubated at 37° C. for 3 minutes, then a 50 μM of ADP (adenosine diphosphate) solution or a 200 μg/ml collagen solution was added to determine the extent of coagulation in terms of transmittance determined by an aggregometer.
Rate of Coagulation Inhibition=(1-T/T .)×100%
T . : transmittance observed when a salt of CM-chitin derivative was not added.
T : transmittance observed when a salt of CM-chitin derivative was added.

vitronectin = experiment: Cell adhesion-inhibitory test against vitronectin (competitive assay, number of adhered cells); type: cell-based, human; settings: endothelium cells of blood vessel, 37° C., one hour, 0 control 249
Description: as §1, §2
[…] Each of the solutions (0.25 ml) was dispensed to the plate prepared above, 0.25 ml of a suspension of endothelium cells of blood vessel (4×10^6 cells/ml) was added to the plate and incubated at 37° C. for one hour to thus cause cohesion of the cells. The plate was washed three times with DMEM medium to remove non-adhesive cells, then the adhered cells were peeled off with a 0.025% EDTA trypsin solution and stained with a 2% Trypan Blue solution to determine the number of the adhered cells.

[2] = concentration 10 mg/ml (so in the source)
[3] = concentration 50 mg/ml (so in the source)
[4] = concentration 100 mg/ml (so in the source)
[5] = concentration 300 mg/ml (so in the source)

Row | Substance | Cell Adhesion-Inhibitory effect Against Fibronectin (number of adhered cells) (fibronectin; concentration 0.5 mg/ml) | Cell Adhesion-Inhibitory effect Against Fibronectin (number of adhered cells) (fibronectin; concentration 1.0 mg/ml) | Cell Adhesion-Inhibitory effect Against Fibronectin (number of adhered cells) (fibronectin; concentration 1.5 mg/ml) | Cell Adhesion-Inhibitory effect Against Fibronectin (number of adhered cells) (fibronectin; concentration .25 mg/ml) | Platelet Coagulation-Inhibitory Action IC50, ADP Stimulation [1] | Platelet Coagulation-Inhibitory Action IC50, Collagen Stimulation [1] | Cell Adhesion-Inhibitory effect Against Vitronectin (number of adhered cells) (vitronectin; [2]) | Cell Adhesion-Inhibitory effect Against Vitronectin (number of adhered cells) (vitronectin; [3]) | Cell Adhesion-Inhibitory effect Against Vitronectin (number of adhered cells) (vitronectin; [4]) | Cell Adhesion-Inhibitory effect Against Vitronectin (number of adhered cells) (vitronectin; [5])
1 | Sulfated Succinylated CM-Chitin-Arg-Gly-Asp-Ser ({sulfated succinylated CM‑chitin}-RGDS) [CM--chitin derivative-15] | 89 cell/well | 65 cell/well | 37 cell/well | 105 cell/well | 15 µg/mL | 6 µg/mL | 115 cell/well | 69 cell/well | 54 cell/well | 38 cell/well
2 | CM-chitin-Arg-Gly-Asp-Ser-Gly-NH2 ({CM‑Chitin}-RGDSG-NH2; also: conjugated to CM-chitin) [CM--chitin derivative-17] | 84 cell/well | 61 cell/well | 35 cell/well | 99 cell/well | 14 µg/mL | 5 µg/mL | 114 cell/well | 76 cell/well | 48 cell/well | 33 cell/well
3 | Succinylated CM-Chitin Arg-Gly-Asp [CM--chitin derivative-9] | 97 cell/well | 85 cell/well | 65 cell/well | 121 cell/well | 28 µg/mL | 9 µg/mL | 139 cell/well | 88 cell/well | 77 cell/well | 58 cell/well
4 | Succinylated CM-Chitin-(Arg-Gly-Asp)2 ({succinylated CM‑Chitin}-RGDRGD) [CM--chitin derivative-10] | 110 cell/well | 87 cell/well | 73 cell/well | 122 cell/well | 20 µg/mL | 13 µg/mL | 136 cell/well | 86 cell/well | 71 cell/well | 43 cell/well
